We go through 14 compounds from ChEMBL document CHEMBL3217539, “Design, synthesis and biological evaluation of new molecules inhibiting epidermal growth factor receptor threonine790 methionine790 mutant” (Medchemcomm, 2012).

Data set [1] deals with Epidermal growth factor receptor (Homo sapiens, UniProt P00533). The data set is described as follows: Inhibition of wild type EGFR kinase (unknown origin) after 1.5 hrs by FRET-based Z'-Lyte assay.
For data set [2], the target named is Epidermal growth factor receptor (Homo sapiens, UniProt P00533, T790M). The data set is described as follows: Inhibition of EGFR kinase T790M mutant (unknown origin) after 1.5 hrs by FRET-based Z'-Lyte assay. Type of data set: protein assay.
Sequence of Epidermal growth factor receptor (Homo sapiens, UniProt P00533, T790M) (P00533 25-1210 T790M limits assumed): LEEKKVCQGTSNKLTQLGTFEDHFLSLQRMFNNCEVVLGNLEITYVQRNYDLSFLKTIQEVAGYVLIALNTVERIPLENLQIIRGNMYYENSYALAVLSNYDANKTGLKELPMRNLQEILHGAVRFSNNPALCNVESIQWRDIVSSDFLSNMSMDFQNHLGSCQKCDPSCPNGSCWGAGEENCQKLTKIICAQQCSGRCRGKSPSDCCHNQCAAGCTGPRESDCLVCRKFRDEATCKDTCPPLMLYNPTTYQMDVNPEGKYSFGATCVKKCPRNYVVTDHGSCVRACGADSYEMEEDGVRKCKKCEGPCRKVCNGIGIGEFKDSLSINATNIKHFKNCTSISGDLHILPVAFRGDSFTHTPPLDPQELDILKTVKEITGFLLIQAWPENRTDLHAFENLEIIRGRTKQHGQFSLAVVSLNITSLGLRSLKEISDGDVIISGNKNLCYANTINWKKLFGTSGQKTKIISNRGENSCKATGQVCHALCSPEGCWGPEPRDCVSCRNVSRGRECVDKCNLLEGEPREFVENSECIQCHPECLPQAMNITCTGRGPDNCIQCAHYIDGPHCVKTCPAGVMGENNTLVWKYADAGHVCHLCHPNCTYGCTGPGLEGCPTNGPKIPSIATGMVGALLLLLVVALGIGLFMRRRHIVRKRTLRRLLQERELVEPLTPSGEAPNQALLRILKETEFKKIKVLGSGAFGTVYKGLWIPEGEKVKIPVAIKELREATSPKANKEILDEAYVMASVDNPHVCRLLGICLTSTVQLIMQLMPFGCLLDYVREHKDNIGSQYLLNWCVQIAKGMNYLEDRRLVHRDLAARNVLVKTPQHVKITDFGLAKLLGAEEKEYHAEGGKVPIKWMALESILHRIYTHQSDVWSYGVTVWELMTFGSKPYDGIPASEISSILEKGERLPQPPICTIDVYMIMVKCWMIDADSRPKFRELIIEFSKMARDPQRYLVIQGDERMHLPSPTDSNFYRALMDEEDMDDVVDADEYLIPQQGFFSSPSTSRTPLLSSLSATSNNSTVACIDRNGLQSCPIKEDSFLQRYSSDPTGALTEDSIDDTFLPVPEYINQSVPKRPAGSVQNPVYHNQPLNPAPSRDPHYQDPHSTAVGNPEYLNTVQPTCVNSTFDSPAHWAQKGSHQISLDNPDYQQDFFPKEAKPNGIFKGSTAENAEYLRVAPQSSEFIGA
Data set [3] deals with Epidermal growth factor receptor (Homo sapiens, UniProt P00533, L858R). Kind of data set: Inhibition of EGFR kinase L858R mutant (unknown origin) after 1.5 hrs by FRET-based Z'-Lyte assay. Type of data set: protein assay.
Sequence of Epidermal growth factor receptor (Homo sapiens, UniProt P00533, L858R) (P00533 25-1210 L858R limits assumed): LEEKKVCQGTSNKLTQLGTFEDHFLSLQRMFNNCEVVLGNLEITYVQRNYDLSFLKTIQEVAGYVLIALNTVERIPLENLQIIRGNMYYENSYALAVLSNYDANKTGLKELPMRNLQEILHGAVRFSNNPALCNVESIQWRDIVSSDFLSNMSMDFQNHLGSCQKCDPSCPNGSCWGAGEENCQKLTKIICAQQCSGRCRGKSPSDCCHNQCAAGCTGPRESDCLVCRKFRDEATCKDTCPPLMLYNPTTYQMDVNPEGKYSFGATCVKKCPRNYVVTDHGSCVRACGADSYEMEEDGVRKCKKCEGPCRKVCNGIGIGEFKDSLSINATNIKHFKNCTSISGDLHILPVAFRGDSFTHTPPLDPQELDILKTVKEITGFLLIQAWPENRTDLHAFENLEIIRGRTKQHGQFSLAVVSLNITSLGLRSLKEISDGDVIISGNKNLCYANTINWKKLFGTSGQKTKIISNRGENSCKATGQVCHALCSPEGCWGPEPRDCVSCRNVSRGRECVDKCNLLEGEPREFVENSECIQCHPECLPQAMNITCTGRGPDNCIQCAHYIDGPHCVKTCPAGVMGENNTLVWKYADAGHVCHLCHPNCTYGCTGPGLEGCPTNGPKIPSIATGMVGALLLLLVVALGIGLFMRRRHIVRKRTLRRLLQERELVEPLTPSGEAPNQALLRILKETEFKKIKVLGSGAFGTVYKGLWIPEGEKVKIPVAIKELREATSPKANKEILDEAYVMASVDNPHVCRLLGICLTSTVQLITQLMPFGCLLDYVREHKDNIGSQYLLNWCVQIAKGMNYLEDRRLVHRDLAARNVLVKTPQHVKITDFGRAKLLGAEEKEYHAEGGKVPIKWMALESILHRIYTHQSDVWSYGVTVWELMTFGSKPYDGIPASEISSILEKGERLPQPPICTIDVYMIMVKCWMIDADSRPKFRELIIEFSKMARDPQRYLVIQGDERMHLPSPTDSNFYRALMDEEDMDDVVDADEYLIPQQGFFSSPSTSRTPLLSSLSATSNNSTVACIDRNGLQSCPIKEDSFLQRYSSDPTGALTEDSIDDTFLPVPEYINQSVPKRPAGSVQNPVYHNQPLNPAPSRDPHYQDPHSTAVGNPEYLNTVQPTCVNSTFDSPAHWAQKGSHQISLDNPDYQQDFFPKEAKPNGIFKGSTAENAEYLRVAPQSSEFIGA
For data set [4], the target named is Epidermal growth factor receptor (Homo sapiens, UniProt P00533, L861Q). The data set is described as follows: Inhibition of EGFR kinase L861Q mutant (unknown origin) after 1.5 hrs by FRET-based Z'-Lyte assay. The data set is classed as protein assay.
Data set [5] addresses Epidermal growth factor receptor (Homo sapiens, UniProt P00533, L858R/T790M). The data set is described as follows: Inhibition of EGFR kinase L858R/T790M double mutant (unknown origin) after 1.5 hrs by FRET-based Z'-Lyte assay. The data set is classed as protein assay.
Another data set relates to NCI-H1975. The data set is described as follows: cells. The data set is classed as functional, cell-based. The following applies: Homo sapiens, NCI-H1975, 72 h.
The nature of data set [6]: Cytotoxicity against human HCC827 cells expressing EGFR kinase E746 to A750 deletion mutant after 72 hrs by MTS assay. Particulars: HCC827, 72 h. Type of data set: functional, cell-based.
The nature of data set [7]: Cytotoxicity against human HL7702 cells expressing wild type EGFR after 72 hrs by MTS assay. The following applies: L02, 72 h. The data set is classed as ADME, cell-based. For orientation: Formazan colour is commonly taken as a measure of viable cells.
Data set [8] has as its system Epidermal growth factor receptor (Homo sapiens), P00533 [L858R,T790M]. Kind of data set: Inhibition of EGFR kinase L858R/T790M double mutant phosphorylation in human H1975 cells after 24 hrs by Western blotting analysis. The data set is classed as cell-based.
For data set [9] the test system is unchanged. The data set is described as follows: Inhibition of EGFR kinase L858R/T790M double mutant phosphorylation in human H1975 cells at >= 50 nM after 24 hrs by Western blotting analysis. The data set is classed as cell-based. For orientation: In western blotting, separated proteins are transferred to a membrane and probed.
The nature of data set [10]: Selectivity ratio of IC50 for human HL7702 cells expressing wild type EGFR to IC50 for human H1975 cells expressing EGFR kinase L858R/T790M double mutant. Type of data set: ADME, cell-based. The following applies: read-out: Ratio IC50.
Data set [11] can be described thus: Selectivity ratio of IC50 for human HL7702 cells expressing wild type EGFR to IC50 for human H1975 cells expressing EGFR kinase […]. The following applies: read-out: Ratio IC50. Type of data set: ADME, cell-based.

Activity calls are given as the source filed them. No cut-off for these calls is given here.

Sequence of Epidermal growth factor receptor (Homo sapiens, UniProt P00533) (P00533 whole entry): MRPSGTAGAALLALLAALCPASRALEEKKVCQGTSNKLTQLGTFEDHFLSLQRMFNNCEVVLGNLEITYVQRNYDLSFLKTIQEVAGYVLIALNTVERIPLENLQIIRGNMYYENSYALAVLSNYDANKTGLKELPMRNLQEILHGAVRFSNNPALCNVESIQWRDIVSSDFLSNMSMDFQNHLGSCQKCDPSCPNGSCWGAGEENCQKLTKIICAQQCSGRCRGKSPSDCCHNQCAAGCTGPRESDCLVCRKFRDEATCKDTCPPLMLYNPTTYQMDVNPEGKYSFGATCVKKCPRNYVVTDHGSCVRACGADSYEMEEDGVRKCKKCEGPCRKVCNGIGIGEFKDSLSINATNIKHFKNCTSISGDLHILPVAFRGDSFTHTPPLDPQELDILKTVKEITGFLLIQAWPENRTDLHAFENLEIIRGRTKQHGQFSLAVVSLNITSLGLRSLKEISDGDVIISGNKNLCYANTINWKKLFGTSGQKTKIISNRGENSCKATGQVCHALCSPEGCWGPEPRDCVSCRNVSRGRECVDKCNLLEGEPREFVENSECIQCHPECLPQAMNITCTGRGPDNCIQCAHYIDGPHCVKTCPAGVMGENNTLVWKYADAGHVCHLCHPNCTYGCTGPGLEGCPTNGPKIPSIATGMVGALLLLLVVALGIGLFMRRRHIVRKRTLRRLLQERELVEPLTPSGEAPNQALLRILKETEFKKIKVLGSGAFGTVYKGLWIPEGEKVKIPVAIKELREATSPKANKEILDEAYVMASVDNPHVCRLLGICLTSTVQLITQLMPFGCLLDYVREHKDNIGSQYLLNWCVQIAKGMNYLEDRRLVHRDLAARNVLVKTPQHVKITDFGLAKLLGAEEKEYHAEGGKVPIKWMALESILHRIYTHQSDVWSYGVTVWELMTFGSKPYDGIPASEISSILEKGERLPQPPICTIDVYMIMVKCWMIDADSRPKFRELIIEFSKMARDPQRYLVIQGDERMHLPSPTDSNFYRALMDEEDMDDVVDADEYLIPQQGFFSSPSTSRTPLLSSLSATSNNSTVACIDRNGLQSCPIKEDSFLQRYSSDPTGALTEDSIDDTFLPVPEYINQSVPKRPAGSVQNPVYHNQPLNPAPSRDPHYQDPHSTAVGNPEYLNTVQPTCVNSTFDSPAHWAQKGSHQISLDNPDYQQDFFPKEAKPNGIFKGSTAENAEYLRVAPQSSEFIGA
Sequence of Epidermal growth factor receptor (Homo sapiens, UniProt P00533, L858R/T790M) (P00533 25-1210 T790M/L858R limits assumed): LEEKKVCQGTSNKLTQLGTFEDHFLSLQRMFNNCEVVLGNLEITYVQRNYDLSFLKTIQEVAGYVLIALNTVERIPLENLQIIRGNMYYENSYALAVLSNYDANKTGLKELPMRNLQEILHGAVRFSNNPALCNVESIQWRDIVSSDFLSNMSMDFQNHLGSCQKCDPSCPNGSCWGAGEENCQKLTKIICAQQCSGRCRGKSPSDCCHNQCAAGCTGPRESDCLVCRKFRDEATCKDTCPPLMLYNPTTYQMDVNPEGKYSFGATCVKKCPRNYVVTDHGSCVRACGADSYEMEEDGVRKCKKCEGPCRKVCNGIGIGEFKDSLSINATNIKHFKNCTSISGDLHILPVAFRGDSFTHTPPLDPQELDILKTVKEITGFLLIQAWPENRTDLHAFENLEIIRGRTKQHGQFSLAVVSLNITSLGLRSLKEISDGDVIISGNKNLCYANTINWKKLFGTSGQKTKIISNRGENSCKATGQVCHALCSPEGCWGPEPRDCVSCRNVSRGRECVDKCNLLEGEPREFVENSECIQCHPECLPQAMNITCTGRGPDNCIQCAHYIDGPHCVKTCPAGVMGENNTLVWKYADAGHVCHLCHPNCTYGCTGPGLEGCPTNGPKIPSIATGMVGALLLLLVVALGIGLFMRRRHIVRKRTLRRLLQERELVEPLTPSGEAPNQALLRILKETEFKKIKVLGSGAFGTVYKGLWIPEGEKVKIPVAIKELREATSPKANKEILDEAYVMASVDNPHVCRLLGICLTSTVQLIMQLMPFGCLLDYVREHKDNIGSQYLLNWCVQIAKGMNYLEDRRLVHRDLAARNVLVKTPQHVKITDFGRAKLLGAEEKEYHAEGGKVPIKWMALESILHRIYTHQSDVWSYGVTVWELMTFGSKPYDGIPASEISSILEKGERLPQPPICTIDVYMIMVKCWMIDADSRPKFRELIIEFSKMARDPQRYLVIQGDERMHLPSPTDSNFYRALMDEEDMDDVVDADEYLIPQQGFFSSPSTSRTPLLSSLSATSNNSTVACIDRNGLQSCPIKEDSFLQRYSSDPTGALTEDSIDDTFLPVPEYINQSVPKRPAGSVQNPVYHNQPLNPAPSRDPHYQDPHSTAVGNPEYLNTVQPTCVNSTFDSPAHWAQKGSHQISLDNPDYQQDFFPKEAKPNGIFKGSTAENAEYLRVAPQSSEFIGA

A word on the IC50: it is the concentration needed to halve the response being measured. A higher IC50 goes with lower potency. Take `C=CC(=O)Nc1cccc(N2C(=O)CN(C)C(=O)c3cnc(Nc4ccc(N5CCN(C)CC5)cc4OC)nc32)c1`: the IC50 in data set [1] worked out at 9.14 nM; in data set [2], 110 nM; in data set [3], 15.1 nM; in data set [4] it was 22.3 nM; in data set [5] it was 52.6 nM; in the data set with NCI-H1975, 11700 nM. Further, the results for the IC50 in data set [6] and in data set [7] were 1680 nM and 44500 nM, respectively.

In the case of `C=CC(=O)Nc1cccc(N2C(=O)C(Cc3ccccc3)N(C)C(=O)c3cnc(Nc4ccc(N5CCN(C)CC5)cc4OC)nc32)c1` (stereo not given), the half-inhibitory concentration (IC50) stood at 4.68 nM in data set [1]; 16.5 nM in data set [2]; 8.33 nM in data set [3]; 5.3 nM in [4]; 8.95 nM in [5]; 89 nM in the data set with NCI-H1975. In addition, the IC50 stood at 24 nM in data set [6] and 25600 nM in data set [7]. Besides, the inhibition result in [8] was “Dose-dependent effect”. Besides, the inhibition entry in data set [9] is “Active”. In addition, the selectivity ratio in data set [10] and in data set [11] was 200 each time.

For the compound `C=CC(=O)Nc1cccc(N2C(=O)CN(Cc3ccccc3)C(=O)c3cnc(Nc4ccc(N5CCN(C)CC5)cc4OC)nc32)c1`, the 50% inhibitory concentration (IC50) in [1] worked out at 6.26 nM; in data set [2] it was 84.2 nM; in data set [3] it was 9.12 nM; in [4], 8.4 nM; in [5], 32.8 nM; in the data set with NCI-H1975, 2590 nM. Also, the IC50 stood at 87 nM in [6] and 17500 nM in data set [7].

For `C=CC(=O)Nc1cccc(N2C(=O)C(Cc3ccc(F)cc3)N(C)C(=O)c3cnc(Nc4ccc(N5CCN(C)CC5)cc4OC)nc32)c1` (stereo not given), the IC50 in [1] was 5.78 nM; in data set [2], 17.9 nM; in data set [3] it was 24.5 nM; in data set [4] it was 7.57 nM; in [5], 14.1 nM; with NCI-H1975 it was 69 nM. The values for the half-maximal inhibitory concentration (IC50) in data set [6] and in data set [7] were 71 nM and 13700 nM, respectively. Besides, the inhibition entry in [8] is “Dose-dependent effect”. Also, in data set [9], the inhibition result is “Active”. The selectivity ratio in [10] and in data set [11] was 200 in each case.

For `C=CC(=O)Nc1cccc(N2C(=O)C3CCCN3C(=O)c3cnc(Nc4ccc(N5CCN(C)CC5)cc4OC)nc32)c1` (stereo not given), the half-maximal inhibitory concentration (IC50) in [1] is > 1000 nM; in [2] it was > 1000 nM; in data set [3], > 1000 nM; in data set [4], > 1000 nM; in data set [5], > 1000 nM; with NCI-H1975, 31400 nM. The IC50 came out at 6900 nM in data set [6] and 16100 nM in data set [7].

As for `C=CC(=O)Nc1cccc(N2C(=O)C(Cc3ccc(Cl)cc3)N(C)C(=O)c3cnc(Nc4ccc(N5CCN(C)CC5)cc4OC)nc32)c1` (stereo not given), the figures for the IC50 (with NCI-H1975; in data set [6]; in [7]) were 470 nM, 300 nM and 8730 nM, respectively.

Consider `C=CC(=O)Nc1cccc(N2C(=O)C(C(C)CC)N(C)C(=O)c3cnc(Nc4ccc(N5CCN(C)CC5)cc4OC)nc32)c1` (stereo not given), for which the IC50 in [1] came to 10.2 nM; in [2], 86.8 nM; in data set [3], 13.2 nM; in [4] it was 7.25 nM; in [5] it was 87.5 nM; in the data set on NCI-H1975, 1110 nM. The IC50 in [6] is 600 nM; in data set [7] it was 15000 nM.

In the case of `C=CC(=O)Nc1cccc(N2C(=O)C(C)N(C)C(=O)c3cnc(Nc4ccc(N5CCN(C)CC5)cc4OC)nc32)c1` (stereo not given), the 50% inhibitory concentration (IC50) was found to be 22.1 nM in data set [1]; 122 nM in data set [2]; 41.6 nM in data set [3]; 6.02 nM in [4]; 50.9 nM in data set [5]; 920 nM in the data set on NCI-H1975. Further, the IC50 in data set [6] is 130 nM; in data set [7], 49200 nM.

On to `C=CC(=O)Nc1cccc(N2C(=O)C(C(C)C)N(C)C(=O)c3cnc(Nc4ccc(N5CCN(C)CC5)cc4OC)nc32)c1` (stereo not given), for which the concentration for half-maximal inhibition (IC50) in [1] was determined as 24.8 nM; in [2], 44 nM; in data set [3], 56.5 nM; in data set [4], 24.1 nM; in data set [5] it was 24.8 nM; in the data set with NCI-H1975, 650 nM. Moreover, the IC50 in data set [6] amounted to 69 nM; in data set [7] it was 28200 nM.

In the case of `C=CC(=O)Nc1cccc(N2C(=O)CN(c3ccccc3)C(=O)c3cnc(Nc4ccc(N5CCN(C)CC5)cc4OC)nc32)c1`, the IC50 in data set [1] was 6.99 nM; in data set [2], 221 nM; in data set [3], 30.7 nM; in data set [4], 6.86 nM; in data set [5], 194 nM; in the data set on NCI-H1975 it was 9190 nM. Also, the half-maximal inhibitory concentration (IC50) in [6] was 140 nM; in data set [7], 1710 nM.

For the compound `C=CC(=O)Nc1cccc(N2C(=O)C(c3ccccc3)N(C)C(=O)c3cnc(Nc4ccc(N5CCN(C)CC5)cc4OC)nc32)c1` (stereo not given), the IC50 in [1] was 77.2 nM; in data set [2] it was 778 nM; in data set [3], 174 nM; in data set [4], 77.1 nM; in data set [5], > 1000 nM; in the data set on NCI-H1975 it was 5900 nM. Moreover, the figures for the half-maximal inhibitory concentration (IC50) in [6] and in data set [7] were 3820 nM and 14300 nM, respectively.

Take `C=CC(=O)Nc1cccc(N2C(=O)C(Cc3ccc(OC)cc3)N(C)C(=O)c3cnc(Nc4ccc(N5CCN(C)CC5)cc4OC)nc32)c1` (stereo not given): the IC50 in [1] amounted to 33.9 nM; in data set [2], 88.3 nM; in [3], 50 nM; in data set [4], 97.1 nM; in [5] it was 53.9 nM; in the data set with NCI-H1975, 820 nM. The IC50 was found to be 280 nM in data set [6] and 16200 nM in data set [7].

Turning to `C=CC(=O)Nc1cccc(N2C(=O)C3CCCCN3C(=O)c3cnc(Nc4ccc(N5CCN(C)CC5)cc4OC)nc32)c1` (stereo not given), the IC50 in data set [1] was 2.45 nM; in data set [2] it was 115 nM; in data set [3], 4.3 nM; in [4] it was 2.74 nM; in data set [5], 40.7 nM; with NCI-H1975 it was 990 nM. For the same compound, the 50% inhibitory concentration (IC50) in data set [6] worked out at 68 nM; in [7] it was 23000 nM.

`C=CC(=O)Nc1cccc(Oc2nc(Nc3ccc(N4CCN(C)CC4)cc3OC)ncc2Cl)c1`: the half-maximal inhibitory concentration (IC50) in the data set with NCI-H1975 stood at 87 nM; in [6] it was 24 nM; in data set [7], 9150 nM.
